Converted amounts (≈) assume the structure as drawn. Values belong to the molecule of their own block, whether it stands above or below them. The source made the active and inactive calls. No cut-off for these calls is given here.
What was measured:
[1] = Reduction of ATPase activity of DNAK (unknown origin) using ALLQSRLLLSAPRRAAATARY as substrate at 100 uM by spectrophotometric analysis relative to control in presence of cochaperone DnaJ
[2] = Binding affinity to CLPB E276A/E678A mutant (unknown origin) expressed in Escherichia coli MC4100 assessed as change in melting temperature by DSF analysis
Escherichia coli [3] = assay: Antibacterial activity against Escherichia coli MC4100 assessed as growth inhibition at 42 degC after 24 hrs by two-fold dilution method in presence of paraquat; format: functional; conditions: MC4100, 24 h
Escherichia coli [4] = assay: Antibacterial activity against CLPB-deleted Escherichia coli MC4100 assessed as growth inhibition at 0.1 to 1000 uM at 37 to 47 degC after 24 hrs by two-fold dilution method in presence of paraquat; format: functional, organism-based
Escherichia coli [5] = assay: Antibacterial activity against CLPB-deleted Escherichia coli MC4100 assessed as growth inhibition at 37 degC after 24 hrs by two-fold dilution method; format: functional, organism-based
[6] = Effect on ATPase activity of DNAK (unknown origin) using ALLQSRLLLSAPRRAAATARY as substrate at 100 uM by spectrofluorimetric analysis
[7] = Binding affinity to CLPB (unknown origin) expressed in Escherichia coli MC4100 assessed as change in melting temperature at 100 to 200 uM after 30 mins by DSF analysis in presence of ATPgammaS
[8] = Inhibition of DNAK/CLPB (unknown origin) assessed as reactivation of malate dehydrogenase aggregates after 2 hrs in presence of Tween 80
[9] = Inhibition of DNAK (unknown origin) assessed as reactivation of luciferase aggregates after 2 hrs
Escherichia coli [10] = assay: Antibacterial activity against Escherichia coli BL21(DE3) assessed as growth inhibition at 0.1 to 1000 uM at 37 to 47 degC after 24 hrs by two-fold dilution method in presence of paraquat; format: functional
Escherichia coli [11] = assay: Antibacterial activity against Escherichia coli MC4100 assessed as reduction of CFU count at 300 uM at 37 degC after 24 hrs by two-fold dilution method in presence of paraquat; format: functional
[12] = Binding affinity to CLPB E276A/E678A mutant (unknown origin) expressed in Escherichia coli MC4100 at 80 uM in presence of alpha-casein by spectrofluorimetric analysis
[13] = Inhibition of ATPase activity of CLPB (unknown origin) expressed in Escherichia coli MC4100 using 10 uM alpha-casein as substrate at 1 to 100 uM by spectrophotometric analysis
[14] = Cytotoxicity against human HeLa cells assessed as cell viability at 40 to 100 uM after 72 hrs by tetrazolium reduction assay relative to control; format: cell-based; conditions: read-out: Activity
[15] = Binding affinity to CLPB (unknown origin) expressed in Escherichia coli MC4100 assessed as change in melting temperature at 100 to 200 uM after 30 mins by DSF analysis in presence of ADP
[16] = Binding affinity to CLPB (unknown origin) expressed in Escherichia coli MC4100 up to 400 seconds by surface plasmon resonance analysis
Escherichia coli [17] = assay: Antibacterial activity against CLPB-deleted Escherichia coli MC4100 assessed as reduction of CFU count at 300 uM at 37 degC after 24 hrs by two-fold dilution method; format: functional, organism-based
Escherichia coli [18] = assay: Antibacterial activity against Escherichia coli MC4100 assessed as reduction of CFU count at 300 uM at 42 degC after 24 hrs by two-fold dilution method; format: functional
[19] = Inhibition of ATPase activity of CLPB (unknown origin) expressed in Escherichia coli MC4100 using 20 to 100 uM alpha-casein as substrate at 1 to 100 uM by spectrophotometric analysis
Escherichia coli [20] = assay: Antibacterial activity against Escherichia coli MC4100 assessed as growth inhibition at 37 degC after 24 hrs by two-fold dilution method; format: functional, organism-based
[21] = Inhibition of DNAK/CLPB (unknown origin) assessed as reactivation of malate dehydrogenase aggregates after 2 hrs
Escherichia coli [22] = assay: Antibacterial activity against TolC-deleted Escherichia coli JLS1015 at 37 to 47 degC after 7 hrs by two-fold dilution method; format: functional; conditions: JLS1015, 7 h
[23] = Binding affinity to CLPB (unknown origin) expressed in Escherichia coli MC4100 assessed as change in melting temperature at 100 to 200 uM after 30 mins by DSF analysis in presence of ATP
[24] = Binding affinity to CLPB E276A/E678A mutant (unknown origin)-alpha-casein complex expressed in Escherichia coli MC4100 at 0.1 to 1000 uM by titrimetric analysis
[25] = Cytotoxicity against CHO cells assessed as cell viability at 40 to 100 uM after 72 hrs by tetrazolium reduction assay relative to control; format: cell-based, Cricetulus griseus; conditions: chinese hamster, read-out: Activity
[26] = Reduction of ATPase activity of DNAK (unknown origin) at 100 uM by spectrophotometric analysis
Escherichia coli [27] = assay: Antibacterial activity against Escherichia coli MC4100 assessed as growth inhibition at 0.1 to 1000 uM at 37 to 47 degC after 24 hrs by two-fold dilution method in presence of paraquat; format: functional, organism-based
[28] = Binding affinity to CLPB (unknown origin) expressed in Escherichia coli MC4100 assessed as change in melting temperature at 100 to 200 uM after 30 mins by DSF analysis
[29] = Reduction of ATPase activity of DNAK (unknown origin) using ALLQSRLLLSAPRRAAATARY as substrate at 100 uM by spectrophotometric analysis relative to control in presence of cochaperone GrpE
Escherichia coli [30] = assay: Antibacterial activity against Escherichia coli BL21(DE3) assessed as growth inhibition at 42 degC after 24 hrs by two-fold dilution method in presence of paraquat; format: functional
[31] = Binding affinity to CLPB hexamer (unknown origin) expressed in Escherichia coli MC4100 at 100 uM by sedimentation equilibrium analysis
[32] = Inhibition of DNAK (unknown origin) assessed as reactivation of luciferase aggregates after 2 hrs in presence of Tween 80
Escherichia coli [33] = assay: Antibacterial activity against CLPB-deleted Escherichia coli MC4100 assessed as reduction of CFU count at 300 uM at 37 degC after 24 hrs by two-fold dilution method in presence of paraquat; format: functional, organism-based
[34] = Activation of CLPB (unknown origin) expressed in Escherichia coli MC4100 at 1 to 100 uM by spectrophotometric analysis
[35] = Activation of CLPB (unknown origin) expressed in Escherichia coli MC4100 using alpha-casein as substrate at 1 to 100 uM by spectrophotometric analysis
Escherichia coli [36] = assay: Antibacterial activity against Escherichia coli BL21(DE3) assessed as growth inhibition at 37 degC after 24 hrs by two-fold dilution method; format: functional
[37] = Effect on ATPase activity of CLPB (unknown origin) expressed in Escherichia coli MC4100 using alpha-casein as substrate at 1 to 100 uM by spectrophotometric analysis
[38] = Effect on ATPase activity of CLPB (unknown origin) expressed in Escherichia coli MC4100 at 1 to 100 uM by spectrophotometric analysis
[39] = Inhibition of CLPB (unknown origin) expressed in Escherichia coli MC4100 using alpha-casein as substrate at 1 to 100 uM by spectrophotometric analysis
[40] = Inhibition of CLPB (unknown origin) expressed in Escherichia coli MC4100 at 1 to 100 uM by spectrophotometric analysis
[41] = Binding affinity to CLPB E276A/E678A mutant (unknown origin) expressed in Escherichia coli MC4100 at 100 uM in presence of alpha-casein by spectrofluorimetric analysis

SMILES: O=Cc1cc(Cc2ccccc2Cl)cc([N+](=O)[O-])c1O
fold change (FC) [1]: 7
Kd [2]: 12 µM
MIC (Escherichia coli [3]): 60 µM
growth inhibition (GI) (Escherichia coli [4]): inactive
growth inhibition (GI) (Escherichia coli [5]): Active
Activity [6]: inactive
ΔTm [7]: 4.9 °C
IC50 [8]: 6 µM
IC50 [9]: 4 µM
growth inhibition (GI) (Escherichia coli [10]): Active
log10cfu (Escherichia coli [11]): 2
Activity [12]: Active
inhibition [13]: Active
viability at 72 h, up to 100 µM [14]: 50%
ΔTm [15]: 6.7 °C
Kd [16]: 12.9 µM
Activity (Escherichia coli [17]): inactive
log10cfu (Escherichia coli [18]): 2
inhibition [19]: Active
growth inhibition (GI) (Escherichia coli [20]): Active
IC50 [21]: 7 µM
MIC (Escherichia coli [22]): 5 µM (≈ 1.46 µg/mL)
ΔTm [23]: 7.2 °C
Activity [24]: Active
viability at 72 h, up to 100 µM [25]: 50%
Activity [26]: Active
growth inhibition (GI) (Escherichia coli [27]): Active
ΔTm [28]: 8.1 °C
fold change (FC) [29]: 7
MIC (Escherichia coli [30]): 60 µM
Activity [31]: Active
IC50 [32]: 6 µM
Activity (Escherichia coli [33]): inactive

SMILES: CC1(C)S[C@@H]2[C@H](NC(=O)[C@H](N)c3ccccc3)C(=O)N2[C@H]1C(=O)O [AMPICILLIN]
MIC (Escherichia coli [36]): 2 µM (≈ 0.699 µg/mL)

SMILES: Cc1c(Cl)c([N+](=O)[O-])nn1CC(=O)Nc1cc(Oc2ccc(Cl)cc2Cl)cc([N+](=O)[O-])c1
Activity [37]: inactive
IC50 [9]: > 100 µM
ΔTm [15]: 0.7 °C
IC50 [21]: > 100 µM
ΔTm [23]: 2 °C
Activity [38]: inactive
ΔTm [28]: 14.3 °C

Now from value to molecule, other results behind:

ΔTm [7]: 12.3 °C
IC50 [8]: 6 µM
IC50 [9]: 40 µM
Activity [34]: Active
IC50 [21]: 10 µM
Activity [35]: Active
ΔTm [28]: > 40 °C
IC50 [32]: 60 µM
SMILES: O=C1Nc2ccc([N+](=O)[O-])cc2/C1=C1\SC(=O)N(c2ccc(Cl)cc2)C1=O

Activity [37]: inactive
ΔTm [7]: 5.4 °C
IC50 [8]: > 100 µM
IC50 [9]: > 100 µM
ΔTm [15]: 7.6 °C
IC50 [21]: > 100 µM
ΔTm [23]: 7.9 °C
Activity [38]: inactive
ΔTm [28]: 9 °C
IC50 [32]: > 100 µM
SMILES: C=CCN1C(=O)C(=C2C(=O)Nc3ccccc32)SC1=S

ΔTm [7]: -0.8 °C
IC50 [8]: 40 µM
IC50 [9]: > 100 µM
inhibition [39]: Active
inhibition [40]: Active
ΔTm [15]: 1.5 °C
IC50 [21]: 65 µM
ΔTm [23]: 2.2 °C
Activity [24]: inactive
ΔTm [28]: -0.8 °C
IC50 [32]: > 100 µM
SMILES: CCn1c(=O)c(C(=O)Nc2cccc(O)c2)c(O)c2ccccc21

Activity [41]: Active
MIC (Escherichia coli [3]): 60 µM
ΔTm [7]: 2 °C
IC50 [8]: 15 µM
IC50 [9]: > 100 µM
inhibition [13]: Active
ΔTm [15]: 0.8 °C
inhibition [19]: inactive
IC50 [21]: 20 µM
MIC (Escherichia coli [22]): 5 µM (≈ 1.93 µg/mL)
ΔTm [23]: 0.8 °C
Activity [24]: inactive
ΔTm [28]: 1.5 °C
MIC (Escherichia coli [30]): 60 µM
IC50 [32]: > 100 µM
SMILES: O=C(Nc1ccccc1)OCCSC(=O)Nc1ccc(Cl)c(Cl)c1
Kd [2]: 23 µM
growth inhibition (GI) (Escherichia coli [4]): inactive
growth inhibition (GI) (Escherichia coli [5]): Active
growth inhibition (GI) (Escherichia coli [10]): Active
log10cfu (Escherichia coli [11]): 2
viability at 72 h, up to 100 µM [14]: 50%
Kd [16]: 19 µM
Activity (Escherichia coli [17]): inactive
log10cfu (Escherichia coli [18]): 2
growth inhibition (GI) (Escherichia coli [20]): Active
viability at 72 h, up to 100 µM [25]: 50%
growth inhibition (GI) (Escherichia coli [27]): Active
Activity (Escherichia coli [33]): inactive
